Experiment [1] has as its system mouse transient spinal cord ischemia model. Kind of experiment: Measurement of spinal cord blood flow (SCBF) after release of blood flow interception. In kind it is in vivo. The conditions noted are these: inhalation of 5% carbon dioxide gas from cannulation until end of model creation; SCBF before interception = 100%; measured for 480 seconds after release of interception; compared with 100% oxygen control; FIG. 1. An excerpt:
(§1) An 8 to 12-week-old male mouse was used for creating a mouse transient spinal cord ischemia model. The mouse was subjected to endotracheal intubation under anesthesia by the inhalation of isoflurane and cannulation for measuring blood pressure in the left femoral artery. The cervix and a part of the sternum were incised, and the left common carotid artery, the aortic arch, and the left subclavian artery were exposed. The blood flow was intercepted at the aortic arch and the left subclavian artery base using two vascular clips. The vascular clips were removed 4 minutes and 30 seconds after the blood flow interception, and the blood flow interception was released. […]
(§2) The inhalation of 5% carbon dioxide gas was started from the cannulation in the process of creating the mouse transient spine ischemia model, and the inhalation was continued until the end of the model creation. […] The spinal cord blood flow (SCBF) before the blood flow interception was defined as 100%, and the spinal cord blood flow was measured for 480 seconds after the blood flow interception was released. A known method (Basso et al., J Nurotrauma, 23(5): 635-59, 2006) was partially modified, and the motor functions were continuously evaluated by the Basso Mouse Scale (BMS) 24, 48 and 72 hours after spinal cord ischemia. […]

Experiment [2] shares this test system. Kind of experiment: Evaluation of motor function by Basso Mouse Scale (BMS) after spinal cord ischemia. In kind it is in vivo. The conditions noted are these: inhalation of 5% carbon dioxide gas, compared with 100% oxygen controls, FIGS. 2A-2B.
From the text: as §1, §2

These results are taken from patent US11096961B2, “Pharmaceutical composition for suppressing spinal cord ischemic disorder” (SUMITOMO SEIKA CHEMICALS CO., LTD., priority 2019, dated 2021).

Take `O=C=O` [5% carbon dioxide gas, carbon dioxide]: the “spinal cord blood flow (SCBF) in the ischemic state” value in experiment [1] is given as “improved more rapidly”. In addition, the “decreases in the motor functions (Basso Mouse Scale)” value in experiment [2] (BMS 24, 48 and 72 hours after spinal cord ischemia) was “hardly observed”. Also, in experiment [2] (BMS=0 to 5 is paraplegia or death, 24, 48 and 72 hours after ischemia), the “onset of late-onset paraplegia” value was “suppressed remarkably”.
